One assay relates to TLR4. The experiment in a line: Interaction of PBD-2 with TLR4 in RAW 264.7 cells, coimmunoprecipitation. Format: binding, mouse. The conditions noted are these: PBD-2 1, 10, 30, and 50 μg/ml, 16 h, captured with PBD-2 antisera. The protocol:
A Co-IP assay was conducted using a Co-IP kit (# abs955, Absin®, Shanghai, China) in accordance with the manufacturer's instructions. In brief, RAW 264.7 cells were cultured in dishes of 10 cm in diameter. The cells (1 × 10^7) were treated with different concentrations of PBD-2 (1, 10, 30, and 50 μg/ml) for 16 h and lysed using a lysis buffer that contained protease inhibitors […]. The soluble faction of the cell lysate was collected after centrifugation at 14,000 × g at 4°C for 10 min. Afterwards, 2 μl of PBD-2 antisera (with titer 1:500,000) or 2 μl of mouse IgG antisera (# sc-2025, Santa Cruz®, CA, USA) as control were incubated with 200 μg of the cell lysate at 4°C for 12 h. Protein A/G beads (5 μl) were added and incubated at 4°C for 12 h. The precipitates with the immune complexes were collected by centrifugation at 12,000 × g at 4°C for 1 min. The beads were washed with a wash buffer. TLR4 in the precipitates was detected with Western blot by using an antibody against TLR4 (# sc-293072, Santa Cruz®, Santa Cruz, CA, USA).

The test system of another assay is NF-κB p65. The experiment in a line: Western blot of p65 and p-p65 in RAW 264.7 cells. Format: cell-based, mouse. As to the method:
RAW 264.7 cells were treated with LPS (1 μg/ml) alone or together with PBD-2 (10 μg/mL). After 6 h, the cells were lysed, and inflammatory proteins were detected through Western blot. Proteins were firstly analyzed with SDS-PAGE and then electro-transferred onto a PVDF (#ISEQ00010, Biosharp®, Beijing, China) membrane. The PVDF membrane was blocked with 1/100 bovine serum albumin (BSA, #V900933-100G, VETEC, Sigma-Aldrich®, St. Louis, MO, USA) at 10 μg/ml at 37°C for 2 h, washed with PBST five times, incubated with the antisera against p-p65 (# 3033), p65 (# 4764), p-ERK (# 4370), ERK (# 4695), p-p38 (# 4511), p38 (# 8690), p-JNK (# 4668), JNK (# 9258) (Cell Signaling Technology®, Danvers, MA, USA), and β-actin (# AA128, Beyotime®, Shanghai, China) at 2 μg/ml at 37°C for 2 h and washed five times again. The PVDF membrane was subsequently incubated with 1 μg/ml secondary antibody, namely, goat anti-rabbit IgG (# 7074S, Cell Signaling Technology®, Danvers, MA, USA), at 37°C for 2 h and washed five times. Lastly, immune-reactive bands were detected using an ECF Western blot system (Tanon 5200 Multi, Shanghai, China) and quantified using AlphaImager 2200 analysis software.
For orientation: Immunoblotting shows a protein as a band on a membrane.

Assay [1] has as its system NF-κB. In words: mRNA level of NF-κB in RAW 264.7 cells (RT-PCR). Format: cell-based, mouse. The conditions noted are these: LPS 1 μg/ml with PBD-2 10 μg/mL, 4 h; n = 6. The protocol:
The cDNA of the RAW 264.7 cells treated with LPS (1 μg/ml) alone or together with PBD-2 (10 μg/mL) for 4 h (n = 6 each group) was used as a template by using the primers NF-κB-01 ([…]) and NF-κB-02 ([…]) and the primers GAPDH-01 and GAPDH-02 for the housekeeping gene GAPDH to detect the expression level of NF-κB. The relative expression level of NF-κB is shown as 2^−ΔCt (mean ± SEM), where ΔCt = Ct NF−κB−CtGAPDH. The protocol consisted of 40 replication cycles. The Ct values above 34 cycles were considered non-detectable.

For assay [2], the system named is NF-κB. The experiment in a line: NF-κB promoter activity, luciferase reporter assay in RAW 264.7 cells. Format: cell-based, mouse. The conditions noted are these: n = 6. The protocol: A luciferase reporter assay was used to detect the promoter activity of NF-κB. RAW 264.7 cells were seeded in a 24-well plate for 24 h and then cotransfected with 800 ng/well of the NF-κB reporter plasmid (pGL3-Basic) and 20 ng/well of pLR-TK. WT […] luciferase (Rluc) served as the reporter gene control vector. […] In the inhibition assay, the cells were pre-treated with 1 μg/ml TLR4 inhibitor for 1 h and treated with LPS (1 μg/ml) alone or together with PBD-2 (10 μg/mL) for 24 h (n = 6 each group). Luciferase units were detected to show the promoter activity of NF-κB ([28]).
Background: In a reporter assay the amount or activity of a reporter protein is the signal.

The format of assay [3] is biochemical, Escherichia coli O55:B5. The conditions noted are these: PBD-2 1, 5, and 10 μg/ml mixed with LPS, 37°C, 10 min; n = 6.
The test system of assay [4] is S. Typhimurium. In words: Histopathology of caecum of mice infected with S. Typhimurium. The conditions noted are these: PBD-2 expressed in TG mice; oral 2.5 × 10^8 CFU; 24 h post-infection; H&E; vs WT.
Protocol: (§1) Four infection experiments were conducted to determine the resistance to S. Typhimurium of the TG mice. For body weight measurements, 7 WT and 7 TG mice were orally administered with 2.5 × 10^8 CFU of S. Typhimurium, and the body weight of each mouse was measured on days 1, 2, 3, 4, and 5 after infection. For the detection of the tissue weight ratios, bacterial loads in tissues and tissue lesions after S. Typhimurium infection, 9 WT and 8 TG mice were orally administered with 2.5 × 10^8 CFU of S. Typhimurium. The spleen, caecum and body weights of the mice were weighed at 24 h post-infection. The bacterial loads in the tissues were also measured ([26]). The spleen and caecum were weighed and homogenized in cold PBS at a ratio of 4 ml per gram of tissue and coated plates. The bacterial numbers in the homogenates were counted by serially diluting the homogenates and spreading on plates. Caeca were harvested for histopathological analysis by using the methods described above. The intestinal damage, including epithelial damage, submucosal oedema, and neutrophil aggregation, was observed.
The test system of assay [5] is S. Typhimurium. The experiment in a line: Bacterial load in caecum of mice infected with S. Typhimurium. The conditions noted are these: PBD-2 expressed in TG mice; oral 2.5 × 10^8 CFU; 24 h post-infection; n = 6; vs WT.
Protocol: as §1
The test system of assay [6] is S. Typhimurium. The experiment in a line: Serum cytokine levels of mice infected with S. Typhimurium (ELISA). Format: in vivo, Salmonella Typhimurium 14028 (in mice). The conditions noted are these: 24 h, n = 6. As to the method: At 24 h post-infection, blood samples of the mice were collected to detect cytokines IL-6 (# EMC004.96), tumor necrosis factor-α (TNF-α, # EMC102a.96), IL-1β (# EMC001b.96), and IL-12 (# EMC006.96) using ELISA kits (Neo-bioscience Technology Company, Shenzhen China). For cytokine detections in the WT mice with or without treatment of PBD-2, the blood samples were collected from the WT mice orally administered with solely 2.5 × 10^8 CFU of S. Typhimurium (n = 6) or together with PBD-2 at 5 mg/kg body weight (n = 6).
Background: ELISA stands for enzyme-linked immunosorbent assay.

Setting [7] is: PBD-2 expressed in TG mice, oral 2.5 × 10^8 CFU S. Typhimurium, vs WT.
Where [8] appears, read: synthetic PBD-2 5 mg/kg orally with 2.5 × 10^8 CFU S. Typhimurium, WT mice, vs infection alone.

Where a SMILES comes first, the peptide text is derived from it.

For the molecule `CC[C@H](C)[C@H](NC(=O)[C@@H]1CSSC[C@@H]2NC(=O)[C@@H]3CCCN3C(=O)[C@H](CO)NC(=O)[C@H](Cc3ccccc3)NC(=O)[C@H](CC(N)=O)NC(=O)[C@@H]3CSSC[C@H](NC(=O)[C@H]([C@@H](C)O)NC(=O)CNC(=O)[C@H](CCC(=O)O)NC(=O)[C@H]([C@@H](C)CC)NC(=O)[C@H](CCCNC(=N)N)NC(=O)[C@H](CC(N)=O)NC(=O)[C@H](Cc4ccccc4)NC(=O)[C@H](CC(C)C)NC(=O)[C@@H]4CCCN4C2=O)C(=O)N[C@@H](Cc2ccc(O)cc2)C(=O)N[C@@H](CO)C(=O)NCC(=O)N[C@@H](CCCCN)C(=O)N[C@@H](C)C(=O)N[C@@H](CCCCN)C(=O)N[C@@H](CSSC[C@H](NC(=O)[C@@H](NC(=O)[C@H](Cc2ccc(O)cc2)NC(=O)[C@H](Cc2c[nH]cn2)NC(=O)[C@@H](N)CC(=O)O)[C@@H](C)CC)C(=O)N[C@@H](C)C(=O)N[C@@H](CCCCN)C(=O)N[C@@H](CCCCN)C(=O)NCC(=O)NCC(=O)N[C@@H]([C@@H](C)O)C(=O)N3)C(=O)N1)C(=O)N[C@@H](CCCNC(=N)N)C(=O)O` [PBD-2, Porcine beta-defensin 2] (HELM PEPTIDE1{D.H.Y.I.C.A.K.K.G.G.T.C.N.F.S.P.C.P.L.F.N.R.I.E.G.T.C.Y.S.G.K.A.K.C.C.I.R}$PEPTIDE1,PEPTIDE1,5:R3-34:R3|PEPTIDE1,PEPTIDE1,12:R3-27:R3|PEPTIDE1,PEPTIDE1,17:R3-35:R3$$$V2.0; N-terminus and C-terminus assumed), the “coimmunoprecipitation of TLR4 with PBD-2” value in the assay on TLR4 is on record as “could react with the antibody against TLR4”. The “LPS-induced NF-κB p65 phosphorylation” value in the assay with NF-κB p65 (LPS 1 μg/ml, PBD-2 10 μg/mL (legend: various concentrations), 6 h) is recorded as “suppress the LPS-induced NF-κB p65 phosphorylation”. Besides, the “activation of NF-κB by PBD-2 itself” value in the assay with NF-κB p65 (PBD-2 without LPS (Figure 5D)) is reported as “did not activate NF-κB”. Further, the “mRNA levels of NF-κB after LPS induction” value in the assay on NF-κB [1] is “reduce the mRNA levels of NF-κB after LPS induction (p < 0.01)”. The “NF-κB promoter activity after LPS induction” value in the assay on NF-κB [2] (LPS 1 μg/ml with PBD-2 10 μg/mL, 24 h) is given as “inhibited the promoter activities of NF-κB after LPS induction (p < 0.01)”. Further, the “NF-κB promoter activity in the presence of TLR4 inhibitor” value in the assay on NF-κB [2] (PBD-2 10 μg/mL with LPS 1 μg/ml, 24 h, after CLI-095 1 μg/ml) is “did not influence the NF-κB promoter activity in the presence of TLR4 inhibitor (NS, p > 0.05)”. For the same molecule, the “inhibitory effect on NF-κB promoter activity after pre-incubation with PBD-2” value in the assay with NF-κB [2] (PBD-2 10, 30, and 60 μg/ml for 30, 60, 120, or 240 min, then LPS) is “positively correlated with dose and incubation time with PBD-2 (p < 0.05)”. In assay [3], the “endotoxic activity of LPS” value is recorded as “did not affect the endotoxic activity of LPS”. In addition, in the assay with S. Typhimurium [4], the “intestinal damage of the caecum (epithelial damage and submucosal oedema)” value is “significantly milder intestinal damage (epithelial damage and submucosal oedema)”; the “neutrophil aggregation in the caecum” value is given as “less neutrophil aggregation compared with that of the WT mice”. The “bacterial load in the caecum” value in the assay on S. Typhimurium [5] is “smaller amount of bacterial load in the caecum compared with the WT mice (p < 0.05)”. Besides, in the assay on S. Typhimurium [6] (setting [7]), the “level of IL-1β in serum” value is reported as “significantly lower than those of the WT mice (p < 0.05)”, the “level of IL-6 in serum” value is recorded as “significantly lower than those of the WT mice (p < 0.05)”, the “level of IL-12 in serum” value is reported as “significantly lower than those of the WT mice (p < 0.05)” and the “level of TNF-α in serum” value is given as “significantly lower than those of the WT mice (p < 0.05)”. Also, in the assay with S. Typhimurium [6] (setting [8]), the “level of IL-1β in serum” value is reported as “significantly lower levels of proinflammatory cytokines than the mice infected with S. Typhimurium alone did (p < 0.05)”, the “level of IL-6 in serum” value is given as “significantly lower levels of proinflammatory cytokines than the mice infected with S. Typhimurium alone did (p < 0.05)”, the “level of IL-12 in serum” value is recorded as “significantly lower levels of proinflammatory cytokines than the mice infected with S. Typhimurium alone did (p < 0.05)” and the “level of TNF-α in serum” value is listed as “significantly lower levels of proinflammatory cytokines than the mice infected with S. Typhimurium alone did (p < 0.05)”.

These data come from publication PMC6657668, “Porcine Beta-Defensin 2 Provides Protection Against Bacterial Infection by a Direct Bactericidal Activity and Alleviates Inflammation via Interference With the TLR4/NF-κB Pathway” (Frontiers in Immunology, 2019).
